Source: patent publication US9283222B2 (priority 2006, dated 2016)

target: Recombinant Human Poly(ADP-Ribose) Polymerase (PARP), PARP-1 (Homo sapiens (Human), UniProt P09874); details: read-out: PARP-1 (Ki)
Sequence (P09874 whole entry): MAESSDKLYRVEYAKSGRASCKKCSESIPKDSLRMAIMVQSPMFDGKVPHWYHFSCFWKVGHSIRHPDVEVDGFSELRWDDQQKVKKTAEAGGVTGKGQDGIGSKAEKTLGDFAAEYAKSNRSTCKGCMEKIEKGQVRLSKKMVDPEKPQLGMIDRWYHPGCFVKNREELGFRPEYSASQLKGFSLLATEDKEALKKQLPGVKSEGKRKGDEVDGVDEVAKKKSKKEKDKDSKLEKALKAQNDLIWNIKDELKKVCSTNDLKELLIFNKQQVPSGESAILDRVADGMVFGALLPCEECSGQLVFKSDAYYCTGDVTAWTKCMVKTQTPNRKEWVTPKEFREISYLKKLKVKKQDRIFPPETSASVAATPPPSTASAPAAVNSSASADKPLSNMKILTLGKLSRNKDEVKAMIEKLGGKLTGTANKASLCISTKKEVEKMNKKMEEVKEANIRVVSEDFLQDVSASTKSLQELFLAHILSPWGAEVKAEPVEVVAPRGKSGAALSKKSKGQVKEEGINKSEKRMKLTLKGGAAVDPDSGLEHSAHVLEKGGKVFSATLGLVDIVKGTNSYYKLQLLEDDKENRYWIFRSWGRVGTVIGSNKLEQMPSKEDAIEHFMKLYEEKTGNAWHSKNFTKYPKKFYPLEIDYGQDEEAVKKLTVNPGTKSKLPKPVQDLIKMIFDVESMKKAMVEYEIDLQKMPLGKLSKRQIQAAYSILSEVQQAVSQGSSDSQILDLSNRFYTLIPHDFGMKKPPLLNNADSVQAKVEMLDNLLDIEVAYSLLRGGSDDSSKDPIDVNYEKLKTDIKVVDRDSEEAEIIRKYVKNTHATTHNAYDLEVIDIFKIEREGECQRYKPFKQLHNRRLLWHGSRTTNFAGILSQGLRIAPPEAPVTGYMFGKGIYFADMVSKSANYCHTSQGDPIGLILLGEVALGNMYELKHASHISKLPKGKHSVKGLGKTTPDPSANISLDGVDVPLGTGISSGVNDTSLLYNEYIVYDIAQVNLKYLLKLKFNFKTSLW

| Compound | Ki [nM] |
| --- | --- |
| CC(C)C[C@H](NC(=O)Nc1cc(Cc2n[nH]c(=O)c3c2CCCC3)ccc1F)C(=O)O [Example 626, N-[({2-fluoro-5-[(4-oxo-3,4,5,6,7,8-hexahydrophthalazin-1-yl)methyl]phenyl}amino)carbonyl]leucine] | 173 |

same assay, conditions: read-out: PARP-1 (Ki); Table 1; text calls the values EC50s

| Compound | Ki [nM] |
| --- | --- |
| COc1ccc(C(=O)N2CCN(C(=O)c3cc(Cc4n[nH]c(=O)c5c4NCCC5)ccc3F)CC2)cc1 [Example 601, 8-(4-fluoro-3-{[4-(4-methoxybenzoyl)piperazin-1-yl]carbonyl}benzyl)-2,3,4,6-tetrahydropyrido[2,3-d]pyridazin-5(1H)-one] | 1.1 |
| O=C(c1cc(Cc2n[nH]c(=O)c3c2NCCC3)ccc1F)N1CCN(c2cccc(C(F)(F)F)c2)CC1 [Example 602, 8-[4-fluoro-3-({4-[3-(trifluoromethyl)phenyl]piperazin-1-yl}carbonyl)benzyl]-2,3,4,6-tetrahydropyrido[2,3-d]pyridazin-5(1H)-one] | 3 |
| CN(C)CCCN1CCCN(C(=O)c2cc(Cc3n[nH]c(=O)c4c3NCCC4)ccc2F)C1 [Example 604, 8-(3-{[3-[3-(dimethylamino)propyl]tetrahydropyrimidin-1(2H)-yl]carbonyl}-4-fluorobenzyl)-2,3,4,6-tetrahydropyrido[2,3-d]pyridazin-5(1H)-one] | 15 |
| O=C1NC(Cc2ccccc2)C(=O)N1c1cc(Cc2n[nH]c(=O)c3c2NCCC3)ccc1F (centres unmarked) [Example 605, 5-benzyl-3-{2-fluoro-5-[(5-oxo-1,2,3,4,5,6-hexahydropyrido[2,3-d]pyridazin-8-yl)methyl]phenyl}imidazolidine-2,4-dione] | 32 |
| O=C(c1ccccc1)C1CCN(C(=O)c2cc(Cc3n[nH]c(=O)c4c3NCCC4)ccc2F)CC1 [Example 609, 8-{3-[(4-benzoylpiperidin-1-yl)carbonyl]-4-fluorobenzyl}-2,3,4,6-tetrahydropyrido[2,3-d]pyridazin-5(1H)-one] | 1.8 |
| COc1ccc(C(=O)C2CCN(C(=O)c3cc(Cc4n[nH]c(=O)c5c4NCCC5)ccc3F)CC2)cc1 [Example 610, 8-(4-fluoro-3-{[4-(4-methoxybenzoyl)piperidin-1-yl]carbonyl}benzyl)-2,3,4,6-tetrahydropyrido[2,3-d]pyridazin-5(1H)-one] | 1.7 |
| O=C(c1ccc2cc[nH]c2c1)N1CCN(C(=O)c2cc(Cc3n[nH]c(=O)c4c3NCCC4)ccc2F)CC1 [Example 611, 8-(4-fluoro-3-{[4-(1H-indol-6-ylcarbonyl)piperazin-1-yl]carbonyl}benzyl)-2,3,4,6-tetrahydropyrido[2,3-d]pyridazin-5(1H)-one] | 1.6 |
| O=C(OCc1ccccc1)N1CCN(C(=O)c2cc(Cc3n[nH]c(=O)c4c3NCCC4)ccc2F)CC1 [Example 613, benzyl 4-{2-fluoro-5-[(5-oxo-1,2,3,4,5,6-hexahydropyrido[2,3-d]pyridazin-8-yl)methyl]benzoyl}piperazine-1-carboxylate] | 1.8 |
| CC(C)(C)OC(=O)N1CCN(C(=O)c2cc(Cc3n[nH]c(=O)c4c3NCCC4)ccc2F)[C@H](c2ccccc2)C1 [Example 614, tert-butyl (3R)-4-{2-fluoro-5-[(5-oxo-1,2,3,4,5,6-hexahydropyrido[2,3-d]pyridazin-8-yl)methyl]benzoyl}-3-phenylpiperazine-1-carboxylate] | 25 |
| C[C@@H]1CN(C(=O)c2ccccc2)CCN1C(=O)c1cc(Cc2n[nH]c(=O)c3c2NCCC3)ccc1F [Example 616, 8-(3-{[(2R)-4-benzoyl-2-methylpiperazin-1-yl]carbonyl}-4-fluorobenzyl)-2,3,4,6-tetrahydropyrido[2,3-d]pyridazin-5(1H)-one] | 2.3 |
| CN(C(=O)Nc1cc(Cc2n[nH]c(=O)c3c2CCCC3)ccc1F)c1ccccc1 [Example 618, N′-{2-fluoro-5-[(4-oxo-3,4,5,6,7,8-hexahydrophthalazin-1-yl)methyl]phenyl}-N-methyl-N-phenylurea] | 41 |
| CCN(C(C)=O)C1CCN(C(=O)c2cc(Cc3n[nH]c(=O)c4c3CCCC4)ccc2F)C1 (centres unmarked) [Example 619, N-ethyl-N-(1-{2-fluoro-5-[(4-oxo-3,4,5,6,7,8-hexahydrophthalazin-1-yl)methyl]benzoyl}pyrrolidine-3-yl)acetamide] | 4 |
| COc1ccc(S(=O)(=O)N2CCN(C(=O)c3cc(Cc4n[nH]c(=O)c5c4CCCC5)ccc3F)CC2)cc1 [Example 620, 4-[4-fluoro-3-({4-[(4-methoxyphenyl)sulfonyl]piperazin-1-yl}carbonyl)benzyl]-5,6,7,8-tetrahydrophthalazin-1(2H)-one] | 2.2 |
| O=C(c1cc(Cc2n[nH]c(=O)c3c2CCCC3)ccc1F)N1CCN(c2cccc(C(F)(F)F)c2)CC1 [Example 621, 4-[4-fluoro-3-({4-[3-(trifluoromethyl)phenyl]piperazin-1-yl}carbonyl)benzyl]-5,6,7,8-tetrahydrophthalazin-1(2H)-one] | 8 |
| COc1ccc(C(=O)N2CCN(C(=O)c3cc(Cc4n[nH]c(=O)c5c4CCCC5)ccc3F)CC2)cc1 [Example 622, 4-(4-fluoro-3-{[4-(4-methoxybenzoyl)piperazin-1-yl]carbonyl}benzyl)-5,6,7,8-tetrahydrophthalazin-1(2H)-one] | 2.4 |
| COc1ccc(N2CCN(C(=O)c3cc(Cc4n[nH]c(=O)c5c4CCCC5)ccc3F)CC2)cc1 [Example 623, 4-(4-fluoro-3-{[4-(4-methoxyphenyl)piperazin-1-yl]carbonyl}benzyl)-5,6,7,8-tetrahydrophthalazin-1(2H)-one] | 3 |
| O=C(c1cc(Cc2n[nH]c(=O)c3c2CCCC3)ccc1F)N1CCN(C(=O)C2CCCCC2)CC1 [Example 624, 4-(3-{[4-(cyclohexylcarbonyl)piperazin-1-yl]carbonyl}-4-fluorobenzyl)-5,6,7,8-tetrahydrophthalazin-1(2H)-one] | 2.5 |
| O=C(O)CNC(=O)Nc1cc(Cc2n[nH]c(=O)c3c2CCCC3)ccc1F [Example 625, N-[({2-fluoro-5-[(4-oxo-3,4,5,6,7,8-hexahydrophthalazin-1-yl)methyl]phenyl}amino)carbonyl]glycine] | 21 |
| C[C@H](NC(=O)Nc1cc(Cc2n[nH]c(=O)c3c2CCCC3)ccc1F)C(=O)O [Example 627, N-[({2-fluoro-5-[(4-oxo-3,4,5,6,7,8-hexahydrophthalazin-1-yl)methyl]phenyl}amino)carbonyl]alanine] | 85 |

| Compound | Ki [nM] |
| --- | --- |
| O=C(Nc1cc(Cc2n[nH]c(=O)c3c2CCCC3)ccc1F)N[C@@H](Cc1ccccc1)C(=O)O [Example 628, N-[({2-fluoro-5-[(4-oxo-3,4,5,6,7,8-hexahydrophthalazin-1-yl)methyl]phenyl}amino)carbonyl]phenylalanine] | 54 |
| O=C1CNC(=O)N1c1cc(Cc2n[nH]c(=O)c3c2CCCC3)ccc1F [Example 630, 3-{2-fluoro-5-[(4-oxo-3,4,5,6,7,8-hexahydrophthalazin-1-yl)methyl]phenyl}imidazolidine-2,4-dione] | 0.7 |
| COc1ccccc1N1CCN(C(=O)c2cc(Cc3n[nH]c(=O)c4c3NCCC4)ccc2F)CC1 [Example 631, 8-(4-fluoro-3-{[4-(2-methoxyphenyl)piperazin-1-yl]carbonyl}benzyl)-2,3,4,6-tetrahydropyrido[2,3-d]pyridazin-5(1H)-one] | 2.8 |
| O=C(c1cc(Cc2n[nH]c(=O)c3c2NCCC3)ccc1F)N1CCN(c2ncncn2)CC1 [Example 632, 8-(4-fluoro-3-{[4-(1,3,5-triazin-2-yl)piperazin-1-yl]carbonyl}benzyl)-2,3,4,6-tetrahydropyrido[2,3-d]pyridazin-5(1H)-one] | 0.9 |
| CC1(C(=O)N2CCCN(C(=O)c3cc(Cc4n[nH]c(=O)c5c4CCCC5)ccc3F)CC2)CC1 [Example 635, 4-[4-fluoro-3-({4-[(1-methylcyclopropyl)carbonyl]-1,4-diazepan-1-yl}carbonyl)benzyl]-5,6,7,8-tetrahydrophthalazin-1(2H)-one] | 1.8 |
| Cn1cnc(C(=O)N2CCCN(C(=O)c3cc(Cc4n[nH]c(=O)c5c4CCCC5)ccc3F)CC2)c1 [Example 636, 4-[4-fluoro-3-({4-[(1-methyl-1H-imidazol-4-yl)carbonyl]-1,4-diazepan-1-yl}carbonyl)benzyl]-5,6,7,8-tetrahydrophthalazin-1(2H)-one] | 1.8 |
| Cn1cncc1C(=O)N1CCCN(C(=O)c2cc(Cc3n[nH]c(=O)c4c3CCCC4)ccc2F)CC1 [Example 637, 4-[4-fluoro-3-({4-[(1-methyl-1H-imidazol-5-yl)carbonyl]-1,4-diazepan-1-yl}carbonyl)benzyl]-5,6,7,8-tetrahydrophthalazin-1(2H)-one] | 4 |
| O=C(c1cc(Cc2n[nH]c(=O)c3c2NCCC3)ccc1F)N1CCN(C(=O)C2CCCC2)CC1 [Example 640] | 0.7 |
| O=C(c1ccc(Cl)cn1)N1CCN(C(=O)c2cc(Cc3n[nH]c(=O)c4c3NCCC4)ccc2F)CC1 [Example 641] | 1.3 |
| CC(C)n1nnc2cc(C(=O)N3CCN(C(=O)c4cc(Cc5n[nH]c(=O)c6c5NCCC6)ccc4F)CC3)ccc21 [Example 643] | 1.2 |
| CN1CCN(C2CCN(C(=O)c3cc(Cc4n[nH]c(=O)c5c4NCCC5)ccc3F)CC2)CC1 [Example 644] | 3 |
| O=C(c1ccc2ccccc2n1)N1CCN(C(=O)c2cc(Cc3n[nH]c(=O)c4c3NCCC4)ccc2F)CC1 [Example 645] | 1.5 |
| O=C(c1ccc(Cl)nc1)N1CCN(C(=O)c2cc(Cc3n[nH]c(=O)c4c3NCCC4)ccc2F)CC1 [Example 646] | 0.7 |
| CC(C)n1c(C(F)(F)F)nc2cc(C(=O)N3CCN(C(=O)c4cc(Cc5n[nH]c(=O)c6c5NCCC6)ccc4F)CC3)ccc21 [Example 647] | 1.7 |
| O=C(c1ccc(O)nc1)N1CCN(C(=O)c2cc(Cc3n[nH]c(=O)c4c3NCCC4)ccc2F)CC1 [Example 649] | 0.6 |
| O=C(c1cnc(Cl)c(O)c1)N1CCN(C(=O)c2cc(Cc3n[nH]c(=O)c4c3NCCC4)ccc2F)CC1 [Example 651] | 1.1 |
| Cc1nc2cc(C(=O)N3CCN(C(=O)c4cc(Cc5n[nH]c(=O)c6c5NCCC6)ccc4F)CC3)ccc2[nH]1 [Example 654] | 1.2 |
| O=C(c1ccc2nc[nH]c2c1)N1CCN(C(=O)c2cc(Cc3n[nH]c(=O)c4c3NCCC4)ccc2F)CC1 [Example 655] | 0.7 |
